Test results published in patent US20220288130A1, “COMPOSITIONS AND METHODS FOR DIAGNOSIS AND TREATMENT OF METABOLIC DISEASES AND DISORDERS” (University of Louisville Research Foundation, Inc., priority 2019, published 2022).

Columns and labels:
[1] = test system: mouse hepatocytes (FL83B cells); assay: Glucose uptake assay (Glucose Uptake-Glo); type: cell-based; conditions: two-log difference in PC (34:2) concentration
Description: Glucose uptake assay. Glucose uptake was performed using the Glucose Uptake-Glo™ Assay from Promega (J1341) in accordance with the manufacturer's instructions. Briefly, 2×10^4 cells were seeded into 96 well tissue culture plate in complete medium. […] Cells were treated with 1 nM of insulin for an additional 1 hour. Medium was removed and cells were washed twice with PBS. 50 μof 2-deoxyglucose (DG, 1 mM per well) was added and incubated for 1 hour at room temperature (RT). 25 μl of stop buffer added and mixed briefly, then 25 μl of neutralization buffer added and shaken briefly. 100 μl of 2DG6P detection reagent was added and the mixture shaken for 3 hours at RT. Luminescence was recorded with 135 gain efficiency using a SYNERGY H1 (BioTek Instruments, Inc., Winooski, Vt.) luminometer. […] These supernatants (0.5 ml) were further used in hepatocyte (cultured with 0.5×10^6 fecal exosomes) cultures to determine the which cytokines were induced by fecal exosome treatment of macrophages.

AhR in FL83B cells = assay: AhR and pAhR expression in hepatocytes (western blot); type: cell-based, mouse
Description: Cells. Murine hepatocytes (FL83B) and human hepatocytes (HepG2) (obtained from the American Type Culture Collection, ATCC®, Manassas, Va.) were grown in tissue culture plates with F12K medium (Thermo Fisher Scientific,) supplemented with 10% heat-inactivated fetal bovine serum (FBS), 100 U ml-1 penicillin, and […] streptomycin at 37° C. in a 5% CO2 atmosphere. Human monocytes (U937) were grown in RPMI 1640 medium (Thermo Fisher Scientific, Waltham, Mass.) supplemented with 10% FBS. For fecal exosomes (with or without PKH26 labeling) treatment for FL83B and HepG2 cells, 2×10^4 cells were seeded into six well plates. After achieving 50-60% confluence, fecal exosomes (numbers indicated in Figures) were added and incubated for 16 hours at 37° C. in a 5% CO2 atmosphere. Cells were washed with PBS and processed for imaging, RNA isolation, and protein extraction. […]
Western blot analysis. […] Protein concentrations were determined using the BioRad Protein Assay Reagent. […] Individual protein was detected with specific antibodies and visualized by infrared fluorescent secondary antibodies (Table 2). The protein bands were visualized and analyzed on an Odyssey CLx Imager (LiCor Inc, Lincoln, Nebr.).

With phosphatidylcholine [PC (34:2)] the “glucose uptake, dose dependence” value [1] was “inhibited in a PC-dose dependent manner” and the “AhR expression in hepatocytes” value (AhR in FL83B cells) was “confirmed in a PC-dose dependent manner”.
